We go through 19 compounds from patent US20240190854A1, “PYRIMIDINE OR PYRIDINE DERIVATIVES USEFUL AS HCN2 MODULATORS” (King's College London, priority 2021, published 2024).

Structures are written as SMILES. Counter-ions that a name gives are not always drawn.

Data set [1] deals with HCN2 (Homo sapiens (Human), UniProt Q9UL51). Kind of data set: HCN2 current assay using PatchXpress 7000A. Format: cell-based. Particulars: PatchXpress protocol; read-out: PX HCN2 IC50. As for the experimental part:
(§1) Example 126A, Using PatchXpress 7000A
(§2) Solutions for recording HCN currents were:
The membrane voltage was then stepped back to −30 mV for a further 8 seconds.
(§3) The peak inward current measured at the end of the pulse to −110 mV (HCN1 and HCN2) or −130 mV (HCN4) was measured and any leak current subtracted to calculate the HCN current. The HCN current amplitude was measured after each control or compound addition and normalized to the control amplitude (Control A).
(§4) All experiments were performed at room temperature (approximately 22° C.).
(§5) Each test compound concentration was applied to the cell for seven (7) minutes, at which point the next cumulative concentration was applied.

Data set [2] has as its target hNav1.5 (Homo sapiens (Human), UniProt Q14524).
Method: Solutions for recording Nav1.5 currents were:
Electrophysiological recordings were made from a human embryonic kidney (HEK) cell line stably expressing the full length hNav1.5. Population patch clamp measurements were made in the perforated patch clamp configuration (100 μg ml^−1 amphotericin) at room temperature (approx. 22° C.) using an IonWorks Quattro from Molecular Devices. […] Currents were first measured under control (pre-compound addition) conditions. […] Currents were measured from the depolarising step at the 15th pulse and referenced to the holding current.
In data set [3] the target is hERG channel (Homo sapiens (Human), UniProt Q12809). Kind of data set: hERG assay using IonWorks Quattro. Format: cell-based. Particulars: IonWorks protocol; read-out: IW hERG IC50. As for the experimental part: Example 127A, Using IonWorks Quattro
Solutions for recording hERG currents were:
This was followed by a […] step of is to −30 mV to evoke the hERG tail current. This sequence was repeated 5 times at a frequency of 0.25 Hz (see FIG. 3). Currents were measured from the tail step at the 5th pulse and referenced to the holding current. Compounds were then incubated for 6-7 minutes prior to a second measurement of the hERG signal using an identical pulse train.

In data set [4] the target is HCN4 (Homo sapiens (Human), UniProt Q9Y3Q4). The data set is described as follows: HCN4 current assay using PatchXpress 7000A. Format: cell-based. Particulars: PatchXpress protocol; read-out: PX HCN4 IC50. As for the experimental part:
as §1, §2, §3, §4, §5

Chain of HCN2 (Q9UL51 whole entry): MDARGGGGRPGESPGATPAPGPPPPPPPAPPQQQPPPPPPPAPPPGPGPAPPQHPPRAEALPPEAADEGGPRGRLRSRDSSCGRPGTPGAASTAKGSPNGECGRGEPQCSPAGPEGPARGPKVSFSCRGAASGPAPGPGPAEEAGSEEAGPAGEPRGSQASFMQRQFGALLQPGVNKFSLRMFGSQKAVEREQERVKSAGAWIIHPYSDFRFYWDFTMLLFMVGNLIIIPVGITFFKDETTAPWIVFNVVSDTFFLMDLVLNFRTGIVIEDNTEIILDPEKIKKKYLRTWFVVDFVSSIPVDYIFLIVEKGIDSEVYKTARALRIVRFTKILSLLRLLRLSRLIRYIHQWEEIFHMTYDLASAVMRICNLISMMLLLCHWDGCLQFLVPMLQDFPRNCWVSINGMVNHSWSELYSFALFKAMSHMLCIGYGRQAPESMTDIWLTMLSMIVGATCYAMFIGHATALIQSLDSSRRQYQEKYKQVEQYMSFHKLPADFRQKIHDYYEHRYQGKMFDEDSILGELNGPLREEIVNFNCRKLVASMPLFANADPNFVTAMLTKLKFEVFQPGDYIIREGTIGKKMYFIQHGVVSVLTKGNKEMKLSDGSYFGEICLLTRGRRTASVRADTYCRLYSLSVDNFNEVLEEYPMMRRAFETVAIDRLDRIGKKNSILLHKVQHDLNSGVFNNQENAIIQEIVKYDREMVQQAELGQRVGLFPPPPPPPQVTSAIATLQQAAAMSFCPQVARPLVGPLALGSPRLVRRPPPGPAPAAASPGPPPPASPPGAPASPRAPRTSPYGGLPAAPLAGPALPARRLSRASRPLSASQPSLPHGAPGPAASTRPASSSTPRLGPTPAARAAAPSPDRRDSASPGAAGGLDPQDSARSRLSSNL
Chain of hERG channel (Q12809 whole entry): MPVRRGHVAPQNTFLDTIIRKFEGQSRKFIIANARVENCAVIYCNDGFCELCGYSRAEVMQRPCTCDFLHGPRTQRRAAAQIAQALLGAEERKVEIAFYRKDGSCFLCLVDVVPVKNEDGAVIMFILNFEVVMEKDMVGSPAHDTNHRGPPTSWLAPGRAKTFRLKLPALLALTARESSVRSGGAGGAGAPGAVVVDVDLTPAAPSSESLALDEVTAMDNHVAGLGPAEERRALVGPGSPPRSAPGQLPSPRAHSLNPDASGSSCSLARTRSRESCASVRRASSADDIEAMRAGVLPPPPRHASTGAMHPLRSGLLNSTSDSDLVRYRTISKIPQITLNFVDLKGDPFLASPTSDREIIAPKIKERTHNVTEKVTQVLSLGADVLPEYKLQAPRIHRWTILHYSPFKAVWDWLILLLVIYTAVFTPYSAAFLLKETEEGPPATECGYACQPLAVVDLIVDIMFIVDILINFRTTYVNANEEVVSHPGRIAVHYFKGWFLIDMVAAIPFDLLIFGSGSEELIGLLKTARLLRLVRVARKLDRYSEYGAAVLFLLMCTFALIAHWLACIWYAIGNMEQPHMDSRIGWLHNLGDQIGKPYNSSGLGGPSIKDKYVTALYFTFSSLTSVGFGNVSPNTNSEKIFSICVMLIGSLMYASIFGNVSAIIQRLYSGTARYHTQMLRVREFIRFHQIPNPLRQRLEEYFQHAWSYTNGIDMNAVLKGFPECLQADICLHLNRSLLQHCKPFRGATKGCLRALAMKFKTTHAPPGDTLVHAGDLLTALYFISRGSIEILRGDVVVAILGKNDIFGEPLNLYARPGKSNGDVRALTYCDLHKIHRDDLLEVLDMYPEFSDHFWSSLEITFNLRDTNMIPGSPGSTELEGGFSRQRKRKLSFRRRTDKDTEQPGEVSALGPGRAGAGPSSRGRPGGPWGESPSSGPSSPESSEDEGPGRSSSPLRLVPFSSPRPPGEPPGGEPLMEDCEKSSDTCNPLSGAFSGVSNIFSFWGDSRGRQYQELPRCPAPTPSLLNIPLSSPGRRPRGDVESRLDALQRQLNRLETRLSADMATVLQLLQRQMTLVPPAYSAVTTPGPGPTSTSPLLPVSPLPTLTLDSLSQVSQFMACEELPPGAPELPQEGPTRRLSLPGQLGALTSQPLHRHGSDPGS
Chain of hNav1.5 (Q14524 whole entry): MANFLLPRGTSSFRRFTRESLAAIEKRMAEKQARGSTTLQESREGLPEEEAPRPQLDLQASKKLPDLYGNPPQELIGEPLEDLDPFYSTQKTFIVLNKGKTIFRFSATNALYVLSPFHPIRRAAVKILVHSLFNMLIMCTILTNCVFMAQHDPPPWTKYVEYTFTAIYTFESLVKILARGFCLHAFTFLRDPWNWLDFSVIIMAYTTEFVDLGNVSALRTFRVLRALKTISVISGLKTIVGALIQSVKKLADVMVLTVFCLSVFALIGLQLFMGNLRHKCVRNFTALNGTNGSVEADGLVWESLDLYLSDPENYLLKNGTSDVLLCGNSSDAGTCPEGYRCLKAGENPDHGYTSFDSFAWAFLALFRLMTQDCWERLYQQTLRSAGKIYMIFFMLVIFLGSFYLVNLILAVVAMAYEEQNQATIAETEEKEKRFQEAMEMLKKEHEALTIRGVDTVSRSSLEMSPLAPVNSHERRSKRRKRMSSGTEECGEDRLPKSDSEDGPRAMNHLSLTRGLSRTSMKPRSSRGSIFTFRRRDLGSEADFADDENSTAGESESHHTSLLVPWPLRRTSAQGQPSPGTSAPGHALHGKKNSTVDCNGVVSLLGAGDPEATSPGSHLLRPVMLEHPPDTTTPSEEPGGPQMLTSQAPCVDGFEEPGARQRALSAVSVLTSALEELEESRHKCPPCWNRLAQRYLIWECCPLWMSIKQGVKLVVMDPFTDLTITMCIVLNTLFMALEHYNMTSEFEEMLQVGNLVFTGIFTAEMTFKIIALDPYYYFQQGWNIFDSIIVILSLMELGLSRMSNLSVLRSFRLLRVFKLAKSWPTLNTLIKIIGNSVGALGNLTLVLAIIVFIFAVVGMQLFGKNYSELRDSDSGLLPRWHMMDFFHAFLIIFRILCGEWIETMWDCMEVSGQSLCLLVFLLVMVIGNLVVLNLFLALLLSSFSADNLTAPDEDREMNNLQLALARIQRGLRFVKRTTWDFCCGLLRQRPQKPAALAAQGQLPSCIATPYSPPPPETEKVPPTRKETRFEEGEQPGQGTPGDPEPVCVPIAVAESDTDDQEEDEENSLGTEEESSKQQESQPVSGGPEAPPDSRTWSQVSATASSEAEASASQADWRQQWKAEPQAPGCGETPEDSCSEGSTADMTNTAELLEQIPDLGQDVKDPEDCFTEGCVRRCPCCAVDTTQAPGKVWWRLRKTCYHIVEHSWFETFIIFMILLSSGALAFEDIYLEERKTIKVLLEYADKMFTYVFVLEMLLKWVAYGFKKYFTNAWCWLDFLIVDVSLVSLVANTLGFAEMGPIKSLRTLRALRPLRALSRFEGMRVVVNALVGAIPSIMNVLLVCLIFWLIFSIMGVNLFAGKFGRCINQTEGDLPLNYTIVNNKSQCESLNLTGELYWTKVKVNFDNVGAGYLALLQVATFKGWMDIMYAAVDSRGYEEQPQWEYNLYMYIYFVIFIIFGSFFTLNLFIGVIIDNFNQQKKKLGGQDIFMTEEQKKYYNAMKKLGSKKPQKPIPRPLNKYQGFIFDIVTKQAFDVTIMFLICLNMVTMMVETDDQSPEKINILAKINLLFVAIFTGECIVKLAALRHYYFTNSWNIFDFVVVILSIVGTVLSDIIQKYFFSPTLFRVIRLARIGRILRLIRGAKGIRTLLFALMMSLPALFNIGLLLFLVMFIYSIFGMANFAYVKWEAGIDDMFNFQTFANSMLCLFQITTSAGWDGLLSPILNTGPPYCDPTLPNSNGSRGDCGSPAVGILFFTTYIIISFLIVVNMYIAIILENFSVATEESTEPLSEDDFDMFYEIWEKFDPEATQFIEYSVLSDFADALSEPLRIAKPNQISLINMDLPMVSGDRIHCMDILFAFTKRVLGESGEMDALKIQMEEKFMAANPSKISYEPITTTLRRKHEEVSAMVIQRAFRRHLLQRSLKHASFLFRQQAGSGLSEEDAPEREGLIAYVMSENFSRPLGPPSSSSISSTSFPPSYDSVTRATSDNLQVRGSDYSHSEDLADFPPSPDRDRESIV

One may read the IC50 as the concentration that inhibits the measured activity by half. `COC(=O)Nc1cccc(C[C@H](N)c2ccccc2-c2noc3ccccc23)n1` [Example 124, Methyl (S)-(6-{2-Amino-2-[2-(benzo[d]isoxazol-3-yl)phenyl]ethyl}pyridine-2-yl)carbamate hydrochloride]: the concentration for half-maximal inhibition (IC50) in data set [1] is 2.1 µM; in data set [2], 1.3 µM; in data set [3], 2.3 µM; in data set [4] it was over 30 µM.

For the compound `N[C@@H](Cc1cccc(N2CCCC2)n1)c1ccccc1-c1noc2ccccc12` [Example 119, (S)-1-[2-(Benzo[d]isoxazol-3-yl)phenyl]-2-[6-(pyrrolidin-1-yl)pyridine-2-yl]ethan-1-amine hydrochloride], the IC50 is 0.8 µM in data set [1], 3.3 µM in data set [2], 1.3 µM in data set [3] and 2.1 µM in data set [4].

With `Cc1cccnc1C[C@H](N)c1ccccc1-c1noc2ccccc12` [Example 47, (S)-1-[2-(Benzo[d]isoxazol-3-yl)phenyl]-2-(3-methylpyridine-2-yl)ethan-1-amine hydrochloride], the IC50 in data set [1] is 0.6 µM; in data set [2], 5.8 µM; in data set [3], 2.8 µM; in data set [4], over 30 µM.

As for `N[C@@H](Cc1cc(Br)ccn1)c1ccccc1-c1noc2ccccc12` [Example 117, (S)-1-[2-(Benzo[d]isoxazol-3-yl)phenyl]-2-(4-bromopyridine-2-yl)ethan-1-amine hydrochloride)], the IC50 in data set [1] amounted to 1.4 µM; in data set [2], 2.7 µM; in data set [3], 2.2 µM; in data set [4], 12.2 µM.

On to `CC(C)n1nc(-c2ccccc2[C@@H](N)Cc2cccc(C#N)n2)c2ccccc21` [Example 67, (S)-2-(6-Cyanopyridine-2-yl)-1-[2-(1-isopropyl-1H-indazole-3-yl)phenyl]ethan-1-amine], for which the IC50 was 1.3 µM in data set [1], 9.5 µM in data set [2], 3.7 µM in data set [3] and 19.5 µM in data set [4].

Turning to `N[C@@H](Cc1cccc(-c2ncco2)n1)c1ccccc1-c1noc2ccccc12` [Example 118, (S)-1-[2-(Benzo[d]isoxazol-3-yl)phenyl]-2-[6-(oxazol-2-yl)pyridine-2-yl]ethan-1-amine hydrochloride], the IC50 is 1.7 µM in data set [1], 7.8 µM in data set [2], 3.1 µM in data set [3] and 5.2 µM in data set [4].

As to `N[C@@H](Cc1cccc(C(F)(F)F)n1)c1ccccc1-c1noc2ccccc12` [Example 62, (S)-1-[2-(Benzo[d]isoxazol-3-yl)phenyl]-2-(6-trifluoromethylpyridin-2-yl)ethan-1-amine hydrochloride], the IC50 in data set [1] is 0.7 µM; in data set [2], 3.8 µM; in data set [3], 3.2 µM; in data set [4] it was 19.2 µM.

As to `COCCNc1cccc(C[C@H](N)c2ccccc2-c2noc3ccccc23)n1` [Example 52, (S)-6-{2-Amino-2-[2-(benzo[d]isoxazol-3-yl)phenyl]ethyl}-N-(2-methoxyethyl)pyridin-2-amine hydrochloride], the IC50 in data set [1] is 1.6 µM; in data set [2], 1.6 µM; in data set [3] it was 1.2 µM; in data set [4] it was 6 µM.

As for `CN(C)C(=O)CCc1cccc(C[C@H](N)c2ccccc2-c2noc3ccccc23)n1` [Example 109, (S)-3-(6-{2-Amino-2-[2-(benzo[d]isoxazol-3-yl)phenyl]ethyl}pyridine-2-yl)-N,N-dimethylpropanamide hydrochloride], the concentration for half-maximal inhibition (IC50) in data set [1] was 2.4 µM; in data set [2], 3.2 µM; in data set [3], 4.3 µM; in data set [4], over 30 µM.

With `Cc1ccc(C[C@H](N)c2ccccc2-c2noc3ccccc23)nc1` [Example 92, (S)-1-[2-(Benzo[d]isoxazol-3-yl)phenyl]-2-(5-methylpyridine-2-yl)ethan-1-amine hydrochloride], the IC50 was 1.9 µM in data set [1], 1.4 µM in data set [2], 6.4 µM in data set [3] and over 30 µM in data set [4].

For `N#Cc1ccc(C[C@H](N)c2ccccc2-c2noc3ccccc23)nc1` [Example 93, (S)-1-[2-(Benzo[d]isoxazol-3-yl)phenyl]-2-(5-cyanopyridine-2-yl)ethan-1-amine hydrochloride], the IC50 is 1.8 µM in data set [1], 2.2 µM in data set [2], 7.5 µM in data set [3] and over 30 µM in data set [4].

On to `Cc1ccc2c(-c3ccccc3[C@@H](N)Cc3ccccn3)noc2c1` [Example 33, (S)-1-[2-(6-Methylbenzo[d]isoxazol-3-yl)phenyl]-2-(pyridine-2-yl)ethan-1-amine], for which the IC50 in data set [1] is 1.7 µM; in data set [2], 8.8 µM; in data set [3], 4.4 µM; in data set [4], over 30 µM.

For the compound `CC(C)(c1ccccn1)[C@H](N)c1ccccc1-c1noc2ccccc12` [Example 49, (R)-1-[2-(Benzo[d]isoxazol-3-yl)phenyl]-2-methyl-2-(pyridine-2-yl)propane-1-amine hydrochloride], the IC50 in data set [1] stood at 6.5 µM; in data set [2], 3.8 µM; in data set [3], 5.2 µM; in data set [4], 22.6 µM.

`CC[C@@H](c1ccccn1)[C@H](N)c1ccccc1-c1noc2ccccc12` [Example 46, (1S,2R)-1-[2-(benzo[d]isoxazol-3-yl)phenyl]-2-(pyridin-2-yl)butan-1-amine hydrochloride]: the IC50 in data set [1] is 3 µM; in data set [2], 1.3 µM; in data set [3], 8.2 µM; in data set [4] it was over 30 µM.

With `N[C@@H](Cc1nc(CCO)ccc1F)c1ccccc1-c1noc2ccccc12` [Example 77, (S)-2-(6-{2-Amino-2-(2-benzo[d]isoxazol-3-yl)phenyl]ethyl}-5-fluoropyridin-2-yl)ethan-1-ol hydrochloride], the IC50 in data set [1] is 0.9 µM; in data set [2], 6.5 µM; in data set [3], over 33 µM; in data set [4], 10.4 µM.

In the case of `CC(C)C(c1ccccn1)[C@H](N)c1ccccc1-c1noc2ccccc12` (stereo partly drawn) [Example 48, (S)-1-[2-(Benzo[d]isoxazol-3-yl)phenyl]-3-methyl-2-(pyridine-2-yl)butan-1-amine hydrochloride], the IC50 is 5.4 µM in data set [1], 5.3 µM in data set [2], 16 µM in data set [3] and over 30 µM in data set [4].

On to `N#Cc1cccnc1C[C@H](N)c1ccccc1-c1noc2ccccc12` [Example 75, (S)-1-[2-(Benzo[d]isoxazol-3-yl)phenyl]-2-(3-cyanopyridin-2-yl)ethan-1-amine], for which the IC50 in data set [1] was 1.2 µM; in data set [2], 6.6 µM; in data set [3] it was 1.5 µM; in data set [4], 6.6 µM.

Regarding `CCc1cccc(C[C@H](N)c2ccccc2-c2noc3ccccc23)n1` [Example 101, (S)-1-[2-(Benzo[d]isoxazol-3-yl)phenyl]-2-(6-ethylpyridine-2-yl)ethan-1-amine hydrochloride], the IC50 in data set [1] came to 0.7 µM; in data set [2], 1.6 µM; in data set [3], 2.8 µM; in data set [4] it was 13.1 µM.

`N[C@@H](Cc1cccc(Br)n1)c1ccccc1-c1noc2ccccc12` [Example 44, (S)-1-[2-(benzo[d]isoxazol-3-yl)phenyl]-2-(6-bromopyridine-2-yl)ethan-1-amine]: the 50% inhibitory concentration (IC50) was 1.2 µM in data set [1], 3.7 µM in data set [2], 12.8 µM in data set [3] and 7.2 µM in data set [4].
